Test results from patent publication US20130317056A1, “NEURONAL NICOTINIC AGONISTS AND METHODS OF CORRELATING COMT SNPS” (ABBVIE INC., priority 2012, published 2013).

What was measured:
[1] = test system: clinically stable subjects with schizophrenia; assay: MATRICS Consensus Cognitive Battery (MCCB), Phase 2a Clinical Study A, ITT; format: in vivo, human; conditions: 25 mg QD, Change to Week 12
From the text: A Phase 2a proof-of-concept (POC) study in clinically stable subjects with schizophrenia who were clinically stable and received stable doses of atypical antipsychotic therapy. The study was a Phase 2, multi-center, randomized, double-blind, placebo-controlled, parallel group study designed to evaluate the safety and efficacy of doses of (4s)-4-(5-phenyl-1,3,4-thiadiazol-2-yloxy)-1-azatricyclo[3.3.1.1^3,7]decane (Compound A) in clinically stable male and female subjects (ages 20 to 55, inclusive) with a Diagnostic and Statistical Manual of Mental Disorders—Fourth Edition, Text Revision (DSM-IV-TR) diagnosis of schizophrenia. […] The criteria for clinical stability was determined by a combination of retrospective data (over the 4 months prior to the start of Screening, which will be supported by clinical records, patient, identified responsible contact person, and physician interviews), and prospective data assessed during the Prospective Stabilization Period of 28 to 42 days duration. […]
The primary endpoint was the MCCB composite score, and the primary endpoint analysis was the change on the MCCB composite score from baseline to endpoint versus placebo. Other secondary measures included the MCCB domains, the NSA-16, the CANTAB cognition battery (measured at different time points from the MCCB), and the UPSA-2. […]

[2] = test system: subjects with schizophrenia who were current smokers; assay: MCCB composite score in current smokers by COMT allele type, Clinical Study A; format: in vivo, human; conditions: for MCCB Change from Baseline to Final Mean(SD) / MCCB Between-group Difference (Pooled SD) / MCCB Effect Size (Raw mean): current smokers
Description: Analysis of the data by cigarette smoking status (current smoker or current nonsmoker) indicated a significant […] interaction (p=0.015).
A blood sample for genotyping was collected from each subject who consented. Genomic DNA was isolated from whole blood using the FlexiGene DNA AGF3000 kit (Qiagen, Valencia, Calif.), on an AutogenFlex 3000 (AutoGen, Holliston, Mass.). Genotypes were determined using the Pyrosequencing detection method (USA—Qiagen, Inc., Valencia, Calif.). Individuals performing the genotyping were blinded to clinical trial data. The significance of the minor allele against the major allele is shown in column marked “Treatment genotype p-value” (Tables 6 and 7).
The SNPs analyzed were RS6269, RS4633, RS4680, and RS4818. The treatment effects across all 4 SNPs in the minor allele indicated a dose-response relationship. The magnitude of the effect for the Compound A 25 mg treatment group was as low as +1.8 points on the MCCB composite score for SNP4680 (corresponding to a Coen's d effect size of 0.43) to as high as +3.7 points for SNP RS4818 (corresponding to a Coen's d effect size of 0.93). […] In fact, the treatment response for both Compound A active treatment groups was generally less than that of placebo for subjects containing the major COMT allele.

[3] = RS4633 T/T or C/T (minor allele), 25 mg vs placebo
[4] = RS4818 G/C or G/G (minor allele), 10 mg vs placebo
[5] = RS6269 G/G or A/G (minor allele), 10 mg vs placebo
[6] = RS6269 G/G or A/G (minor allele), 25 mg vs placebo

c1ccc(-c2nnc(O[C@@H]3C4CC5C[C@H]3C[N@](C5)C4)s2)cc1 [Compound A, (4s)-4-(5-phenyl-1,3,4-thiadiazol-2-yloxy)-1-azatricyclo[3.3.1.1^3,7]decane]
MCCB Verbal Learning, Observed Mean (SD) change from baseline [1]: 2.24 (8.03) T-score
treatment effect on MCCB composite score ([2]; current smokers who contained the major allele for the 4 COMT SNPs): No treatment effect
MCCB Change from Baseline to Final Mean(SD) ([2]; RS4633 C/C (major allele), 25 mg): 0.4(3.9)
MCCB Between-group Difference (Pooled SD) ([2]; RS4633 C/C (major allele), 25 mg vs placebo): −1.1(5.0)
MCCB Change from Baseline to Final Mean(SD) ([2]; RS4633 T/T or C/T (minor allele), 10 mg): −0.3(4.4)
MCCB Between-group Difference (Pooled SD) ([2]; RS4633 T/T or C/T (minor allele), 10 mg vs placebo): −1.2(4.2)
MCCB Change from Baseline to Final Mean(SD) ([2]; RS4633 T/T or C/T (minor allele), 25 mg): 2.9(4.8)
MCCB Between-group Difference (Pooled SD) [2, 3]: 2.0(4.5)
MCCB Effect Size (Raw mean) [2, 3]: 0.44
MCCB Change from Baseline to Final Mean(SD) ([2]; RS4680 A/A or G/A (minor allele), 10 mg): 0.1(4.6)
MCCB Between-group Difference (Pooled SD) ([2]; RS4680 A/A or G/A (minor allele), 10 mg vs placebo): −1.0(4.1)
MCCB Change from Baseline to Final Mean(SD) ([2]; RS4680 A/A or G/A (minor allele), 25 mg): 2.9(4.8)
MCCB Effect Size (Raw mean) ([2]; RS4680 A/A or G/A (minor allele), 25 mg vs placebo): 0.43
MCCB Change from Baseline to Final Mean(SD) ([2]; RS4680 G/G (major allele), 25 mg): 0.4(3.9)
MCCB Between-group Difference (Pooled SD) ([2]; RS4680 G/G (major allele), 25 mg vs placebo): −0.9(5.3)
MCCB Change from Baseline to Final Mean(SD) ([2]; RS4818 C/C (major allele), 25 mg): 1.2(4.6)
MCCB Between-group Difference (Pooled SD) ([2]; RS4818 C/C (major allele), 25 mg vs placebo): −1.0(4.9)
MCCB Change from Baseline to Final Mean(SD) ([2]; RS4818 G/C or G/G (minor allele), 10 mg): 1.7(3.7)
MCCB Between-group Difference (Pooled SD) [2, 4]: 2.1(3.6)
MCCB Effect Size (Raw mean) [2, 4]: 0.58
MCCB Change from Baseline to Final Mean(SD) ([2]; RS4818 G/C or G/G (minor allele), 25 mg): 3.4(4.4)
MCCB Effect Size (Raw mean) ([2]; RS4818 G/C or G/G (minor allele), 25 mg vs placebo): 0.93
MCCB Change from Baseline to Final Mean(SD) ([2]; RS6269 A/A (major allele), 25 mg): 0.8(4.6)
MCCB Between-group Difference (Pooled SD) ([2]; RS6269 A/A (major allele), 25 mg vs placebo): −1.0(3.9)
MCCB Change from Baseline to Final Mean(SD) ([2]; RS6269 G/G or A/G (minor allele), 10 mg): 2.9(4.2)
MCCB Between-group Difference (Pooled SD) [2, 5]: 1.8(5.0)
MCCB Effect Size (Raw mean) [2, 5]: 0.36
MCCB Change from Baseline to Final Mean(SD) ([2]; RS6269 G/G or A/G (minor allele), 25 mg): 3.1(4.4)
MCCB Between-group Difference (Pooled SD) [2, 6]: 2.0(5.1)
MCCB Effect Size (Raw mean) [2, 6]: 0.40
